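At the GI50, growth is halved. TGI is the concentration that stops growth completely.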
Tests used:
Experiment in all cases: inhibition of tumour cell growth, NCI panel, 384-well format
A498 renal = tested on: A498 renal
SN12C renal = tested on: SN12C renal
UACC-62 melanoma = tested on: UACC-62 melanoma
MOLT-4 leukemia = tested on: MOLT-4 leukemia
COLO 205 colon = tested on: COLO 205 colon
ACHN renal = tested on: ACHN renal
CAKI-1 renal = tested on: CAKI-1 renal
UO-31 renal = tested on: UO-31 renal
SF-268 CNS = tested on: SF-268 CNS
TK-10 renal = tested on: TK-10 renal
A549 NSCLC = tested on: A549 NSCLC
CCRF-CEM leukemia = tested on: CCRF-CEM leukemia
PC-3 prostate = tested on: PC-3 prostate

CC(=O)OC[C@H]1O[C@@H](n2ccc(=O)[nH]c2=O)[C@H](OC(C)=O)[C@@H]1OC(C)=O
GI50 (A498 renal): > 100000 nM | TGI (A498 renal): > 100 µM | GI50 (SN12C renal): > 100 µM | TGI (SN12C renal): > 100 µM | GI50 (UACC-62 melanoma): > 100 µM | TGI (UACC-62 melanoma): > 100 µM | GI50 (MOLT-4 leukemia): > 100 µM | TGI (MOLT-4 leukemia): > 100 µM | GI50 (COLO 205 colon): > 100 µM | TGI (COLO 205 colon): > 100 µM | GI50 (ACHN renal): > 100000 nM | TGI (ACHN renal): > 100 µM | GI50 (CAKI-1 renal): > 100000 nM | TGI (CAKI-1 renal): > 100 µM | GI50 (UO-31 renal): > 100000 nM | TGI (UO-31 renal): > 100 µM | GI50 (SF-268 CNS): > 100 µM | TGI (SF-268 CNS): > 100 µM | GI50 (TK-10 renal): > 100000 nM | TGI (TK-10 renal): > 100 µM | GI50 (A549 NSCLC): > 100 µM | TGI (A549 NSCLC): > 100 µM | GI50 (CCRF-CEM leukemia): > 100 µM | TGI (CCRF-CEM leukemia): > 100 µM | GI50 (PC-3 prostate): > 100 µM | TGI (PC-3 prostate): > 100 µM

C#Cc1cccc(Nc2ncnc3cc(OCCOC)c(OCCOC)cc23)c1
GI50 (A498 renal): 1970 nM | TGI (A498 renal): > 100 µM | GI50 (SN12C renal): 3.79 µM | TGI (SN12C renal): > 100 µM | GI50 (UACC-62 melanoma): 6.74 µM | TGI (UACC-62 melanoma): > 90.5 µM | GI50 (MOLT-4 leukemia): 7.14 µM | TGI (MOLT-4 leukemia): > 51.9 µM | GI50 (COLO 205 colon): > 100 µM | TGI (COLO 205 colon): > 100 µM | GI50 (ACHN renal): 329 nM | TGI (ACHN renal): > 25.8 µM | GI50 (CAKI-1 renal): 1830 nM | TGI (CAKI-1 renal): 8.89 µM | GI50 (UO-31 renal): 2040 nM | TGI (UO-31 renal): > 32.4 µM | GI50 (SF-268 CNS): 21.2 µM | TGI (SF-268 CNS): > 72.3 µM | GI50 (TK-10 renal): 849 nM | TGI (TK-10 renal): > 100 µM | GI50 (A549 NSCLC): 3.72 µM | TGI (A549 NSCLC): > 100 µM | GI50 (CCRF-CEM leukemia): 11.2 µM | TGI (CCRF-CEM leukemia): > 100 µM | GI50 (PC-3 prostate): 23 µM | TGI (PC-3 prostate): > 100 µM
